# Experimental data reported in patent US20260308116A1, “TERTIARY AMINE COMPOUNDS CONTAINING AN ALKYNE OR AN AZIDE MOIETY AND THEIR USE” (INSTITUT NATIONAL DE LA SANTÉ ET DE LA RECHERCHE MÉDICALE, priority 2023, published 2026).
# Where two headings read alike, the source gives them in different places.
# Legend:
# DNA [1] = settings: photoactivated by UVA (Dunnick et al. 1987); cited from earlier work
# FA pathway = settings: Semlow et al. 2016; Li et al. 2020; cited from earlier work
# [2] = test system: primary fibroblast cells from non-FA subjects (C3, C4); test: Repair of lesions in non-FA primary fibroblasts; format: cell-based
# Procedure: HeLa, Jurkat and FA or XP primary cells (10^6 per dish) were seeded into 10 cm culture dishes and incubated overnight in culture medium. The following day, samples were treated with 0.5 μM click-Melphalan (Example 1), 0.5 μM click-MonoMelphalan (Example 2) or DMSO vehicle for 1 h. After treatment, cells were PBS-washed and released into medium. At designated time points, samples were harvested and fixed in EtOH 70%. Fixed cells where incubated in a click reaction buffer (50 μM Alexa fluor 647 azide, 1 mM copper (II) sulfate, 100 mM sodium ascorbate, 100 mM Tris-HCl pH 8.0) for 30 min at room temperature and then washed extensively using 3×5% FBS in PBS rinses to remove unbound reporter. Samples were stained with 5 μg/mL propidium iodide in 3% FBS in PBS and then analyzed using an LSR Fortessa flow cytometer (BD Biosciences, San Jose, CA). Ten thousand events were collected for each sample and gated using forward-versus side-scatter to eliminate cell debris and doublets. The data were analyzed using FlowJo software version 7.6.5 (Tree Star, San Carlos, CA).
# FA patient skin fibroblast cells were cryopreserved at Saint-Louis Hospital (Paris, France). Informed consents were obtained from the patients and/or their relatives and IRB approval from the INSERM was given under the number 12-078. […]
# HeLa cells [3] = test: Repair of lesions in HeLa cells, click reaction and flow cytometry
# [4] = test system: cells from subject C3 (non-XP); test: Repair of lesions in control (non-XP) fibroblasts
# [5] = test system: fibroblast cells from XP patients (XP1, XP2); test: Repair of lesions in XP patient fibroblasts
# HeLa cells [6] = test: Reverse alkaline comet assay (ICL formation)
# HeLa cells [7] = test: Dual parameter plot assay (click / propidium iodide)
# HeLa cells [8] = test: Clonogenic survival assay
# DNA [9] = test: Detection of click agents in cells by microscopy (Alexa Fluor 647 azide)
# HeLa FANCD2 KO cells = test: Dual parameter plot assay (click / propidium iodide)
# HeLa cells [10] = test: Detection of G2 arrest by flow cytometry
# [11] = test system: primary fibroblast cells from FA patients (FA1, FA2); test: Repair of lesions in FA patient primary fibroblasts
# [12] = test system: PHA-stimulated lymphocytes from FA patients; test: Repair of lesions in FA patient lymphocytes; settings: both FA patients, 48 h post treatment
smiles,measurement,setting,value
O=c1ccc2cc3ccoc3cc2o1 [Psoralen],type of DNA lesions generated,DNA [1],almost exclusively ICLs
same,repair of psoralen-induced ICLs by FA,FA pathway,not preferentially repaired by FA
"N[C@@H](Cc1ccc(N(CCCl)CCCl)cc1)C(=O)O [melphalan, (S)-2-amino-3-(4-(bis(2-chloroethyl)amino)phenyl)propanoic acid, reference compound]",cells still positive for melphalan,[2],less than 25%
same,effect of added non-clickable melphalan on repair of click-mono-melphalan monoadducts,HeLa cells [3],inhibited by the addition of non-clickable melphalan during the first 24 h of recovery
same,cells still positive for melphalan,[4],25%
same,cells still positive for melphalan,[5],~75%
same,IR-induced tail moment after pre-treatment,HeLa cells [6],large decrease in the IR-induced tail moment
same,visual comet score in the absence of IR,HeLa cells [6],"neither Melphalan, click-Melphalan (Example 1), mono-melphalan (Comparative Example 1) nor click-mono-melphalan (Example 2) generated a visual comet score beyond the vehicle-treated control"
same,cell cycle phase of positive cells at 12 h,HeLa cells [7],most of the HeLa positive cells are blocked in late S-G2
same,fluorescence at 24 h,HeLa cells [7],a decrease in fluorescence is observed at 24 h
same,repair at 48 h,HeLa cells [7],full repair at 48 h
same,number of colonies formed (clonogenic survival),HeLa cells [8],similarly reduces the number of colonies formed with no significative differences
same,toxicity compared to mono-melphalan,HeLa cells [8],higher toxicity of melphalan compared to mono-melphalan
same,fluorescence in cells after click reaction,DNA [9],do not present significant levels of fluorescence
same,cell cycle block and repair until 48 h,HeLa FANCD2 KO cells,remained blocked in late S-G2 phase until 48 h with unrepaired DNA lesions
same,"overall biological response, melphalan vs click-melphalan",HeLa cells [10],equivalent biological response
same,cells still positive for melphalan,[11],~100%
same,persistence of melphalan-induced lesions,[11],persisted in the FA patient cells up to 48 h
"N[C@@H](Cc1ccc(N(CCO)CCCl)cc1)C(=O)O [mono-melphalan, (S)-2-Amino-3-(4-((2-chloroethyl) (2-hydroxyethyl)amino)phenyl)propanoic acid]",repair of lesions in PHA-stimulated lymphocytes,[12],able to repair mono-melphalan
same,cells still positive for mono-melphalan,"[4]; subject C3, 48 h, FIG. 11B",~0%
same,cells still positive for mono-melphalan,"[5]; XP1 and XP2, 48 h, FIG. 11B",~100%
same,persistence of mono-melphalan-induced lesions,"[5]; XP compared to non-XP cells, up to 48 h, FIG. 11A, 11B",persisted in the XP patient cells up to 48 hours
same,visual comet score in the absence of IR,"HeLa cells [6]; no IR, FIG. 1C, 1D, 2C","neither Melphalan, click-Melphalan (Example 1), mono-melphalan (Comparative Example 1) nor click-mono-melphalan (Example 2) generated a visual comet score beyond the vehicle-treated control"
same,number of colonies formed (clonogenic survival),"HeLa cells [8]; 1 h treatment, colonies after 15 days, parent vs click compound, FIG. 1A, 1B",similarly reduces the number of colonies formed with no significative differences
same,dependence of the repair delay on DNA content,HeLa FANCD2 KO cells; FIG. 7A left panel,observed in all cells independently of their DNA content
same,repair of DNA lesions at 24 h,"HeLa FANCD2 KO cells; HeLa FANCD2 KO compared to HeLa, 24 h, FIG. 7A left panel",slightly delayed in HeLa FANCD2 KO at 24 h compared to HeLa cells
same,"reduction of signal during repair of lesions, FA vs non-FA cells","[11]; FA1, FA2 vs C3, C4 fibroblasts, FIG. 9B",No significant differences in the reduction of signal
